The text below walks through data of patent US10053434B2, “Histone deacetylase inhibitors and compositions and methods of use thereof” (CHDI Foundation, Inc., priority 2015, dated 2018).

As a reminder, the IC50 is the concentration needed to halve the response being measured.

For experiment [1], the target named is human catalytic domain HDAC4 protein (amino acids 648-1032) (Homo sapiens (Human), UniProt P56524). The experiment is described as follows: HDAC4 catalytic domain enzymatic activity, fluorogenic substrate Boc-Lys(TFA)-AMC. To be noted: read-out: HDAC4 Biochemical IC50. An excerpt:
Example 25: Analysis of Inhibition of HDAC4 with Class IIa Histone Deacetylase (HDAC) Inhibitors
The potency of Class IIa Histone Deacetylase (HDAC) inhibitors was quantified by measuring the Histone Deacetylase 4 (HDAC4) catalytic domain enzymatic activity using the fluorogenic substrate, Boc-Lys(TFA)-AMC. The substrate was deacetylated to Boc-Lys-AMC by HDAC4. […] The fluorescence of the sample was directly related to the histone deacetylase activity in the sample.
(§1) Serially Dilute HDAC Inhibitor Compounds.
Serial dilutions of the HDAC inhibitors and control reference compound (1-(5-(3-((4-(1,3,4-oxadiazol-2-yl)phenoxy)methyl)-1,2,4-oxadiazol-5-yl)thiophen-2-yl)-2,2,2-trifluoroethanone) were made by first resuspending the lyophilized compound to a final concentration of 10 mM in 100% dimethyl sulfoxide (DMSO). Stocks of 60 μL aliquots of the 10 mM compound in DMSO were prepared and stored at −20° C. From one stock aliquot of each tested compound and the reference compound, a 16-point serial dilution was prepared according to Table 1 using a 125 μL 16-channel Matrix multi-channel pipette (Matrix Technologies Ltd).
2 μL (200×) of each diluted solution and each control (full activity: 100% DMSO alone or full inhibition 1 mM) was stamped into V-bottomed polypropylene 384-well compound plates using either the Bravo (384-well head from Agilent) or 12.5 μL 16-channel Matrix multi-channel pipette (Matrix Technologies Ltd). Each well with the 200× compound solution was diluted 1:20 by the addition of 38 μL assay buffer+DMSO (10.5% DMSO, 45 mM Tris-HCl, 123 mM NaCl, 2.4 mM KCl, and 0.9 mM MgCl2 at pH 8.0 and equilibrated to r.t.).
Prepare HDAC4 Catalytic Domain Enzyme (0.2 μg/mL).
The HDAC4 catalytic domain enzyme was human catalytic domain HDAC4 protein (amino acids 648-1032) with a C-terminal 6× histidine tag, produced by BioFocus. A working solution of enzyme was prepared from a […] stock aliquot of HDAC4 catalytic domain (thawed on ice) diluted to 0.2 μg/mL with assay buffer (50 mM Tris-HCl, 137 mM NaCl, 2.7 mM KCl, and 1 mM MgCl2 at pH 8 and equilibrated to r.t.) just prior to the addition of the enzyme to the assay.
Prepare 5× (50 μM) Boc-Lys(TFA)-AMC Substrate.
5× (50 μM) substrate was prepared just prior to the addition to the assay. A 1 mM substrate stock was made by diluting a 100 mM Boc-Lys(TFA)-AMC in DMSO solution 1:100 by adding it drop-wise to assay buffer (equilibrated to r.t.) while vortexing at slow speed to prevent precipitation. The 5× substrate was prepared by diluting the 1 mM substrate solution 1:20 by adding it drop-wise to assay buffer (equilibrated to r.t.) while vortexing at slow speed to prevent precipitation.
Prepare 3× (30 μM) Developer/Stop Solution.
3× (30 μM) Developer/Stop Solution was prepared just prior to addition to the plate by diluting a stock solution of 10 mM reference compound 1:333 in 25 mg/mL trypsin (PAA Laboratories Ltd.) equilibrated to r.t.
5 μL of each solution of 1:20 diluted compound from above was transferred to a clear bottomed, black, 384-well assay plate using the Bravo or the Janus (384-well MDT head from Perkin Elmer). Using a 16-channel Matrix multi-channel pipette, 35 μL of the working solution of HDAC4 catalytic domain enzyme (0.2 μg/mL in assay buffer) was transferred to the assay plate. The assay was then started by adding 10 μL of 5× (50 μM) substrate to the assay plates using either the Bravo, Janus or 16-channel Matrix multi-channel pipette. The assay plate was then shaken for two minutes on an orbital shaker at 900 rpm (rotations per minute). Next the plate was incubated for 15 minutes at 37° C. The reaction was stopped by adding 25 μL of 3× (30 μM) developer/stop solution to the assay plates using either the Bravo, Janus or a 16-channel Matrix multi-channel pipette. Assay plates were then shaken for 5 minutes on an orbital shaker at 1200 rpm. Next, the assay plates were incubated at 37° C. for 1 hour in a tissue culture incubator. […]

Experiment [2] has as its system Cellular Class IIa HDAC activity. The experiment can be described thus: Inhibition of cellular Class IIa HDAC activity; Cell (Lys-TFA) substrate, Jurkat E6-1 cells. Type of experiment: cell-based. To be noted: Boc-Lys(TFA)-AMC substrate.
From the text: Example 29: Analysis of Inhibition of Cellular Class IIa HDAC Activity with Class IIa Histone Deacetylase (HDAC) Inhibitors; Cell (Lys-TFA) Substrate
(§2) The potency of Class IIa Histone Deacetylase (HDAC) inhibitors was quantified by measuring the cellular histone deacetylase enzymatic activity using the fluorogenic substrate, Boc-Lys(TFA)-AMC. After penetration in Jurkat E6-1 cells, the substrate was deacetylated to Boc-Lys-AMC. After cell lysis and cleavage by trypsin, the fluorophore AMC was released from the deacetylated substrate only. The fluorescence of the sample was directly related to the histone deacetylase activity in the sample.
Jurkat E6.1 Cell Culture and Plating.
(§3) Jurkat E6.1 cells were cultured according to standard cell culture protocols in Jurkat E6.1 Growth Media (RPMI without phenol red, 10% FBS, 10 mM HEPES, and 1 mM Sodium Pyruvate). Jurkat E6.1 cells were counted using a Coulter Counter and resuspended in Jurkat E6.1 growth media at a concentration of 75,000 cells/35 μL. 35 μL or 75,000 cells was seeded into Greiner microtitre assay plates. The plates were then incubated at 37° C. and 5% CO2 while other assay components were being prepared.
as §1
(§4) Serial dilutions of the HDAC inhibitors and control reference compound (1-(5-(3-((4-(1,3,4-oxadiazol-2-yl)phenoxy)methyl)-1,2,4-oxadiazol-5-yl)thiophen-2-yl)-2,2,2-trifluoroethanone) were made by first resuspending the lyophilized compound to a final concentration of 10 mM in 100% DMSO. Stocks of 70 μL aliquots of the 10 mM compound in DMSO were prepared and stored at −20° C. From one stock aliquot of each tested compound and the reference compound, a 16-point serial dilution was prepared according to Table 1 using a 125 μL 16-channel Matrix multi-channel pipette.
(§5) 2 μL (200×) of each diluted solution and each control (full activity: 100% DMSO alone or full inhibition 1 mM) was stamped into V-bottom polypropylene 384-well compound plates using either the Bravo, Janus, or 12.5 μL 16-channel Matrix multi-channel pipette. Each well with the 200× compound solution was diluted 1:20 by the addition of 38 μL Jurkat assay buffer+DMSO (9.5% DMSO, RPMI without phenol red, 0.09% FBS, 9 mM Hepes, and 0.9 mM Sodium Pyruvate equilibrated to r.t.)
Prepare 5× (500 μM) Boc-Lys(TFA)-AMC Substrate.
(§6) 5× (500 μM) substrate was prepared just prior to the addition to the assay. The 5× substrate was prepared by diluting a 100 mM Boc-Lys(TFA)-AMC in DMSO solution 1:200 by adding it drop-wise to Jurkat assay medium (RPMI without phenol red, 0.1% FBS, 10 mM Hepes, and 1 mM Sodium Pyruvate equilibrated to 37° C.) while vortexing at slow speed to prevent precipitation.
(§7) 10 mL of 3× lysis buffer was prepared with 8.8 mL of 3× stock lysis buffer (50 mM Tris-HCl, pH 8.0, 137 mM NaCl, 2.7 mM KCl, 1 mM MgCl2, 1% Nonidet P40 Substitute equilibrated to r.t.) and 1.2 mL of 3 mg/mL Trypsin equilibrated to r.t.
(§8) 5 μL of each solution of 1:20 diluted compound from above was transferred to the Greiner microtitre assay plates with 75,000 cells/well using the Bravo. Cells were then incubated for 2 hours at 37° C. and 5% CO2. The assay was then started by adding 10 μL of 5× (500 μM) substrate to the assay plate using either the Bravo or 16-channel Matrix multi-channel pipette. The cells were then incubated for 3 hours at 37° C. and 5% CO2. Next, 25 μL of 3× lysis buffer was added to each well using either the 125 μL 16 channel pipette or the Bravo. The assay plate was then incubated overnight (15-16 hours) at 37° C. and 5% CO2. The following day, the plates were shaken on an orbital shaker for 1 minute at 900 rpm. Finally the top read fluorescence (Excitation: 355 nm, Emission: 460 nm) was measured using PerkinElmer EnVision.

For experiment [3], the system named is Cellular Class I HDAC activity. The experiment can be described thus: Inhibition of cellular Class I HDAC activity; Cell (Lys-Ac) substrate, Jurkat E6-1 cells. Type of experiment: cell-based. To be noted: Boc-Lys(Ac)-AMC substrate.
From the text: as §2, §3, §4, §5, §6, §7, §8
Example 30: Analysis of Inhibition of Cellular Class I HDAC Activity with Class IIa Histone Deacetylase (HDAC) Inhibitors; Cell (Lys-Ac) Substrate
The Class I HDAC activity of Class IIa Histone Deacetylase (HDAC) inhibitors was quantified by measuring the cellular histone deacetylase enzymatic activity using the fluorogenic substrate, Boc-Lys(Ac)-AMC. This was performed according to the procedure in Example 29, using Boc-Lys(Ac)-AMC substrate in place of Boc-Lys(TFA)-AMC.

Where a name gives a salt, the structure may show the parent alone.

human catalytic domain HDAC4 protein (amino acids 648-1032), sequence (P56524 648-1032): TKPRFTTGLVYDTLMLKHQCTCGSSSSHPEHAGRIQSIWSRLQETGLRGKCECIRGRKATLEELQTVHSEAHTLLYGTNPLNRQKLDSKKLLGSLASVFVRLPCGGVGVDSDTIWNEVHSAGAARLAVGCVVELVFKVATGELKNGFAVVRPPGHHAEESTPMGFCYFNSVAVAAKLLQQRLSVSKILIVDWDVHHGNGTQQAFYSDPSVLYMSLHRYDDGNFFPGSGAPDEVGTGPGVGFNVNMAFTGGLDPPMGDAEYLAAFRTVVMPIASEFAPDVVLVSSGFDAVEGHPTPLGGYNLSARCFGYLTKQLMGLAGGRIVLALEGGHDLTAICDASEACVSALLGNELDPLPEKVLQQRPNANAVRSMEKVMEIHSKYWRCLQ

Turning to `C[C@H](CN1CC(c2ccccc2)C1)NC(=O)c1ccc(-c2noc(C(F)(F)F)n2)cc1` [Example 8, (R)—N-(1-(3-Phenylazetidin-1-yl)propan-2-yl)-4-(5-(trifluoromethyl)-1,2,4-oxadiazol-3-yl)benzamide], the IC50 in experiment [1] worked out at 14 nM; in experiment [2], 39 nM; in experiment [3] it was 710 nM.
The matching figures for `C[C@H](CN1CC2CCC(C2)C1)NC(=O)c1ccc(-c2noc(C(F)(F)F)n2)cc1` [Example 16, N-((2R)-1-(3-Azabicyclo[3.2.1]octan-3-yl)propan-2-yl)-4-(5-(trifluoromethyl)-1,2,4-oxadiazol-3-yl)benzamide]: 7 nM, 12 nM and 890 nM.
The matching figures for `C[C@H](CN1CCCCCC1)NC(=O)c1ccc(-c2noc(C(F)(F)F)n2)cc1` [Example 13, (R)—N-(1-(Azepan-1-yl)propan-2-yl)-4-(5-(trifluoromethyl)-1,2,4-oxadiazol-3-yl)benzamide]: 11 nM, 30 nM and 1700 nM.
The matching figures for `C[C@H](CN1CC2CCCC21)NC(=O)c1ccc(-c2noc(C(F)(F)F)n2)cc1` (single isomer, unassigned) [Example 21]: 4 nM, 16 nM and 3100 nM.
On to `C[C@H](CN1CCC2(CC1)CC2)NC(=O)c1ccc(-c2noc(C(F)(F)F)n2)cc1` [Example 12, (R)—N-(1-(6-Azaspiro[2.5]octan-6-yl)propan-2-yl)-4-(5-(trifluoromethyl)-1,2,4-oxadiazol-3-yl)benzamide], for which the IC50 in experiment [1] was determined as 30 nM; in experiment [2], 58 nM; in experiment [3], 4000 nM.
The matching figures for `C[C@H](CN1CCCC(OC(F)F)C1)NC(=O)c1ccc(-c2noc(C(F)(F)F)n2)cc1` (single isomer, unassigned) [Example 9]: 21 nM, 57 nM and 3700 nM.
The matching figures for `C[C@H](CN1CCc2ccncc2C1)NC(=O)c1ccc(-c2noc(C(F)(F)F)n2)cc1` [Example 18, (R)—N-(1-(3,4-dihydro-2,7-naphthyridin-2(1H)-yl)propan-2-yl)-4-(5-(trifluoromethyl)-1,2,4-oxadiazol-3-yl)benzamide]: 6 nM, 190 nM and 12700 nM.
The matching figures for `C[C@H](CN1CCC[C@@H]1C)NC(=O)c1ccc(-c2noc(C(F)(F)F)n2)c(F)c1` [Example 23, (2S)-1-((R)-2-(3-Fluoro-4-(5-(trifluoromethyl)-1,2,4-oxadiazol-3-yl)benzamido)propyl)-2-methylpyrrolidin-1-ium formate]: 9 nM, 72 nM and 21400 nM.
As to `C[C@H](CN1CCC2(CC2)C1)NC(=O)c1ccc(-c2noc(C(F)(F)F)n2)cc1` [Example 15, (R)—N-(1-(5-Azaspiro[2.4]heptan-5-yl)propan-2-yl)-4-(5-(trifluoromethyl)-1,2,4-oxadiazol-3-yl)benzamide], the IC50 in experiment [1] was determined as 8 nM; in experiment [2], 69 nM; in experiment [3], 5100 nM.
The matching figures for `C[C@H](CN1CCCC2(CC2)C1)NC(=O)c1ccc(-c2noc(C(F)(F)F)n2)cc1` [Example 11, (R)—N-(1-(5-Azaspiro[2.5]octan-5-yl)propan-2-yl)-4-(5-(trifluoromethyl)-1,2,4-oxadiazol-3-yl)benzamide]: 3 nM, 9 nM and 970 nM.
The matching figures for `C[C@H](CN1CC2CCC2C1)NC(=O)c1ccc(-c2noc(C(F)(F)F)n2)cc1` (stereo partly drawn) [Example 19, N-((2R)-1-(3-Azabicyclo[3.2.0]heptan-3-yl)propan-2-yl)-4-(5-(trifluoromethyl)-1,2,4-oxadiazol-3-yl)benzamide]: 4 nM, 9 nM and 1100 nM.
